Measured values as given in patent US6551774B1, “Diagnostic methods for conditions associated with elevated cellular levels of telomerase activity” (Board of Regents, The University of Texas System, priority 1992, dated 2003).

Assays:
[1] = test system: lymphoma cell line JY 616; experiment: Telomere length of JY lymphoma cells by Southern blot; type: cell-based, human; details: AZT treated cells, week 3
Experimental: The first lane is DNA from the cells at the start of the experiment, the second is the RPMI control, and the third is cells treated with AZT for the times indicated.
Cells were treated over a 10 week period with either 10 μM ddG in 0.01% DMSO or medium with 0.01% DMSO only.
(§1) The effect of the agents on telomerase activity in intact cells was then studied utilizing the lymphoma cell line JY 616 which were maintained in RPMI 1640 with […] Hepes, 10% FCS, and penicillin/streptomycin (Gibco). The cells were cultured in 6-well plates (Falcon) with 5.0 ML of medium per well in duplicate. Cells were passaged every 7-10 days which corresponded to 5-7 mean population doublings (MPD), and seeded at 3×10^4 cells per well into fresh medium containing analog or control. Cell viability was monitored prior to harvest utilizing trypan blue stain (Gibco) during counting with a hemocytometer. The average ratio of stained: unstained cells (dead:alive) was […]. The intactness of the DNA was measured on a parallel gel by observing its mobility in a gel prior to digestion by a restriction enzyme.

Tetrahymena cells [2] = experiment: Progeny formation (cycloheximide resistance) of Tetrahymena conjugated in the presence of analog; type: cell-based, Tetrahymena thermophila; details: for # CHX-R: number of cycloheximide-resistant wells
Experimental: For analysis of cycloheximide (CHX) sensitivity of cells conjugated in the presence of analog, 50 ml cultures of each cell type were grown overnight in 2% PPYS, starved in Dryl's for 18 hours, mated (5×10^5 cells/ml) for 6 hours, then analog was added. Cells were allowed to complete mating in the presence of the analog. Twenty-four hours after mixing, cells were diluted in Dryl's solution, counted and plated at 1 cell per well of 96-well plates in 1% PPYS without analog. Cells were grown for 4 days in a humid chamber at 30° C., without shaking. Cells were then replica plated into 1% PPYS plus 15 μg/ml cycloheximide, allowed to grow for four days before scoring, and percent of CHX-resistant wells was calculated. Because generation of progeny expressing the cycloheximide marker requires successful production of a new macronucleus, cells whose macronuclear development was disrupted by the analog are killed in CHX.
This process involves de novo formation of new macronuclear telomeres in the progeny cells. Macronuclear development in ciliated protozoans such as Tetrahymena involves developmentally programmed, site-specific fragmentation of germline chromosomes into linear subchromosomes, whose ends are healed by de novo addition of telomeres. […] Because of the immediate requirement for telomere addition to fragmented DNA, it is possible that the latter process might be more sensitive to telomerase inhibition than telomere maintenance during vegetative growth. To test whether nucleoside analogs cause inhibition of macronuclear development due to a disruption of telomere formation, we mated two strains of Tetrahymena which are sensitive to cycloheximide, but whose progeny after mating are resistant to cycloheximide. Synchronized mated cells were treated with AZT at concentrations ranging from 10 μM to 5 mM for a period beginning just prior to when macronuclear development begins and continuing during macronuclear development (the period 6-24 hours after mating was initiated). […] In attempts to maximize the effect of AZT, cells were either refed at 6 hrs with 2% PPYS or Isobroth, or starved until 24 hrs (the duration of the AZT treatment). Such starvation arrests macronuclear development at an intermediate stage. When refed, macronuclear development would then be forced to proceed in the presence of the AZT. Control, unmated parental cells were also plated and exposed to drug.

Tetrahymena cells [3] = experiment: Single-cell transfer cultures of Tetrahymena with AZT or Ara-G; type: cell-based, Tetrahymena thermophila
Experimental: For analysis of vegetative growth and macronuclear DNA from single-cell cultures containing the nucleoside analogs AZT or Ara-G, SB210 (VI) cells were grown from stationary stock cultures overnight at 30° C. with shaking (100 rpm) in 50 ml 2% PPYS or Isobroth. Cells were counted and added to the appropriate medium plus analog (Ara-G to 1 mM or DMSO to 1% as control in 2% PPYS; AZT to 10 μm or 1 mM, or no addition as control in Isobroth) and plated in 96-well plates (Falcon), 100 μl per well at a density of 1 cell per well. 5 plates were prepared for each analog or control. Wells were scored for cell growth and plates were replica plated every 1-2 days (Ara-G and DMSO plates) or every 2-4 days (AZT and Isobroth control plates) to maintain approximate inoculation densities of 1-10 cells per well for each passage. Occasionally individual wells were passaged by hand (1 μl inoculated per well using a pipettor) into several blank wells, to expand the number of live wells per plate as single-cell cultures were lost over time due to low probability of being transferred at each passage. After passaging, cells were pooled, pelleted and stored at −80° C. until processed for DNA analysis.
To test whether we had missed such a subpopulation of cells, we carried out the same experiments on vegetatively dividing Tetrahymena cells in the presence and absence of drug, but in these experiments the subculturing was carried out by plating cells at an average of 1 to 10 cells per well in microtiter plate wells in the presence of 10 μM and 1 mM AZT, and 10 μM and 1 mM Ara-G. For each drug, cells were plated out in this manner for 30 consecutive days (90 to 150 cell generations) and 16 consecutive days (50 to 80 cell generations) respectively for the 10 μM and 1 mM drug concentrations. DNA was isolated at intervals from combined samplings of the wells for analysis of telomere length.

[4] = test system: lymphoma cell line JY 616; experiment: Growth of cultured JY lymphoma cells with potential telomerase inhibitors; type: cell-based, human; details: 50 μM; normal rate until week 3
Experimental: as §1

[5] = 1 mM in Isobroth, single cell transfers

## Cc1cn([C@H]2C[C@H](N=[N+]=[N-])[C@@H](CO)O2)c(=O)[nH]c1=O [AZT]
[1]
  mean telomere length compared to the control medium: marked decrease in mean telomere length
Tetrahymena cells [2]; 0.01 mM analog (head prints MM), first block for the analog
  % CHX-R: 72%
Tetrahymena cells [2]; 0.01 mM analog (head prints MM), second block for the analog
  % CHX-R: 73%
Tetrahymena cells [2]; 0.01 mM analog, first block for the analog
  # CHX-R: 121
Tetrahymena cells [2]; 0.01 mM analog, second block for the analog
  # CHX-R: 67
Tetrahymena cells [2]; 0.1 mM analog (head prints MM), first block for the analog
  % CHX-R: 68%
Tetrahymena cells [2]; 0.1 mM analog (head prints MM), second block for the analog
  % CHX-R: 67%
Tetrahymena cells [2]; 0.1 mM analog, first block for the analog
  # CHX-R: 100
Tetrahymena cells [2]; 0.1 mM analog, second block for the analog
  # CHX-R: 128
Tetrahymena cells [2]; 1.0 mM analog (head prints MM), first block for the analog
  % CHX-R: 55%
Tetrahymena cells [2]; 1.0 mM analog (head prints MM), second block for the analog
  % CHX-R: 48%
Tetrahymena cells [2]; 1.0 mM analog, first block for the analog
  # CHX-R: 91
Tetrahymena cells [2]; 1.0 mM analog, second block for the analog
  # CHX-R: 60
Tetrahymena cells [2]; 5.0 mM analog (head prints MM), first block for the analog
  % CHX-R: 63%
Tetrahymena cells [2]; 5.0 mM analog (head prints MM), second block for the analog
  % CHX-R: 53%
Tetrahymena cells [2]; 5.0 mM analog, first block for the analog
  # CHX-R: 75
Tetrahymena cells [2]; 5.0 mM analog, second block for the analog
  # CHX-R: 89
Tetrahymena cells [2]; analog present during conjugation
  irreversible disruption of macronuclear development: little or no irreversible disruption
Tetrahymena cells [3]; 10 μM AZT, 10 μM or 1 mM Ara-G, 1 to 10 cells per well
  plating efficiency compared with control medium: no changes in the plating efficiency
Tetrahymena cells [3]; 1 mM in Isobroth
  mean length and size distribution of telomeric DNA of pooled fast cells: indistinguishable from those of control cells grown without AZT
  telomeric DNA of pooled slow cells: slight decrease in mean telomere length and heterogeneity
Tetrahymena cells [3]; [5]
  growth rate of the fast growth class: 2 to 4 cell doubling per day
  growth rate of the slow growth class: 0 to 1 cell doubling per day
[4]
  cell growth: ceased proliferating
